Patent US20150239889A1, “PYRAZOLOPYRIMIDINE COMPOUND” (MITSUBISHI TANABE PHARMA CORPORATION, priority 2012, published 2015)

The compounds below were run against T1, human HIF-PHD2 (Homo sapiens, UniProt Q9GZT9) (assay: HIF-PHD inhibition assay (fluorescence polarization), human HIF-PHD2). Conditions: 2-oxoglutaric acid 3.33 μmol/L.
T1 construct: purchased CrystalGenomics Ltd
Type: biochemical
Protocol: (§1) The activity of the test compound to inhibit human HIF-PHD2 and human HIF-PHD3 was determined.
(§2) The value of enzyme activity was calculated by subtracting the value of fluorescence polarization before addition of the enzyme from the value of fluorescence polarization after addition of enzyme (mP value).
(§3) FAM: 5′-fluoresceinamide ACA: aminocaproic acid

T1 sequence (Q9GZT9 2-426 limits assumed): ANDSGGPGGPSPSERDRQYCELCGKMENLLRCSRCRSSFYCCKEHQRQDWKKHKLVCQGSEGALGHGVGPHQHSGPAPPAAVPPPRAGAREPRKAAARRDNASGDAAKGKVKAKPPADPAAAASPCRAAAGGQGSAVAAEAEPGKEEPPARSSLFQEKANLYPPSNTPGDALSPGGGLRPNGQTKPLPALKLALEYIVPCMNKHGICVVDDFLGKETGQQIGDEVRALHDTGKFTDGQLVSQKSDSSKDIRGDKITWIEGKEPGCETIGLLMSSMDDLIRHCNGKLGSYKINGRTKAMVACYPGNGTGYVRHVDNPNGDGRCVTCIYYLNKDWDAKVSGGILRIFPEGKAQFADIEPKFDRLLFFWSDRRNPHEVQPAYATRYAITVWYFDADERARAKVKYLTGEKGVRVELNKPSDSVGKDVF

| IC50 [nM] | SMILES |
| --- | --- |
| 38 | CC1CC(n2ncc3nc(-n4cc(C(=O)O)cn4)nc(O)c32)CC(C)(C)C1 (single isomer, unassigned) [Example 408] |
| 110 | C[C@@H](c1ccc(F)c(F)c1)n1nc(C2CC2)c2nc(-n3cc(C(=O)O)cn3)nc(O)c21 [Example 459] |
| 39 | O=C(O)c1cnn(-c2nc(O)c3c(cnn3C(c3ccc(Cl)cc3)C3CC3)n2)c1 (centres unmarked) [Example 364] |
| > 300 | Cc1nn([C@@H](C)c2cccc(F)c2)c2c(O)nc(-n3cc(C(=O)O)cn3)nc12 [Example 449] |
| 48 | CCC(c1ccc(Cl)cc1)n1ncc2nc(-n3cc(C(=O)O)cn3)nc(O)c21 (centres unmarked) [Example 322] |
| 62 | CC1(C)CC(=O)N(c2ccc(Cn3ncc4nc(-n5cc(C(=O)O)cn5)nc(O)c43)cc2)C1 [Example 420] |
| 31 | O=C(O)c1cnn(-c2nc(O)c3c(cnn3Cc3ccc(-c4ccc(C(F)(F)F)cc4Cl)cc3)n2)c1 [Example 73] |
| 77 | CC(C)C(c1ccc(C(F)(F)F)cc1)n1ncc2nc(-n3cc(C(=O)O)cn3)nc(O)c21 (single isomer, unassigned) [Example 357] |
| 140 | CC(C)C(c1ccc(F)cc1)n1ncc2nc(-n3cc(C(=O)O)cn3)nc(O)c21 (centres unmarked) [Example 354] |
| 15 | C[C@@H](C1CCN(c2cccc(Cl)c2)CC1)n1ncc2nc(-n3cc(C(=O)O)cn3)nc(O)c21 [Example 435] |
| 78 | CC(c1ccc(F)c(C(F)(F)F)c1)n1ncc2nc(-n3cc(C(=O)O)cn3)nc(O)c21 (centres unmarked) [Example 303] |
| 41 | O=C(O)c1cnn(-c2nc(O)c3c(cnn3C(c3ccc(F)c(Cl)c3)C3CC3)n2)c1 (single isomer, unassigned) [Example 371] |
| 54 | Cc1cc(C(C)n2ncc3nc(-n4cc(C(=O)O)cn4)nc(O)c32)ccc1F (centres unmarked) [Example 301] |
| 15 | C[C@@H](C1CCC(C)(C)CC1)n1ncc2nc(-n3cc(C(=O)O)cn3)nc(O)c21 [Example 382] |
| 19 | Cc1cccc(OCCCn2ncc3nc(-n4cc(C(=O)O)cn4)nc(O)c32)c1C [Example 180] |
| 22 | CC(C)(C)[C@H]1CC[C@H](Cn2nc(Cl)c3nc(-n4cc(C(=O)O)cn4)nc(O)c32)CC1 [Example 225] |

| IC50 [nM] | SMILES |
| --- | --- |
| 60 | CCC(c1ccc(C)cc1)n1ncc2nc(-n3cc(C(=O)O)cn3)nc(O)c21 (centres unmarked) [Example 328] |
| 60 | C[C@H]1CC[C@H](n2ncc3nc(-n4cc(C(=O)O)cn4)nc(O)c32)CC1 [Example 384] |
| 21 | O=C(O)c1cnn(-c2nc(O)c3c(cnn3C[C@H]3CCN(c4ccc(Cl)cc4)C3)n2)c1 [Example 428] |
| 14 | Cc1c(OCCCn2ncc3nc(-n4cc(C(=O)O)cn4)nc(O)c32)ccc2c1CCCC2 [Example 190] |
| 64 | CC(C)C(c1cc(F)cc(F)c1)n1ncc2nc(-n3cc(C(=O)O)cn3)nc(O)c21 (centres unmarked) [Example 360] |
| 83 | CC1(C)CCCC1n1ncc2nc(-n3cc(C(=O)O)cn3)nc(O)c21 (single isomer, unassigned) [Example 418] |
| 210 | CC(C)(Cn1ncc2nc(-n3cc(C(=O)O)cn3)nc(O)c21)c1ccc(Cl)c(Cl)c1 [Example 121] |
| 47 | O=C(O)c1cnn(-c2nc(O)c3c(cnn3[C@@H]3CCc4ccccc43)n2)c1 [Example 396] |
| 31 | C[C@@H](C1CCN(c2ccc(OC(F)(F)F)cc2)CC1)n1ncc2nc(-n3cc(C(=O)O)cn3)nc(O)c21 [Example 433] |
| 66 | Cc1cc(C(C2CC2)n2ncc3nc(-n4cc(C(=O)O)cn4)nc(O)c32)ccc1F (single isomer, unassigned) [Example 377] |
| 61 | Cc1ccc([C@@H](C)n2ncc3nc(-n4cc(C(=O)O)cn4)nc(O)c32)cc1C(F)(F)F [Example 277] |
| 77 | C[C@@H](c1cc(Cl)ccc1F)n1ncc2nc(-n3cc(C(=O)O)cn3)nc(O)c21 [Example 282] |
| 40 | CC1(C)CCCC(n2ncc3nc(-n4cc(C(=O)O)cn4)nc(O)c32)C1 (centres unmarked) [Example 411] |
| 20 | COc1cc(-c2ccccc2F)ccc1Cn1ncc2nc(-n3cc(C(=O)O)cn3)nc(O)c21 [Example 90] |
| 110 | CCC(C)(C)Cn1ncc2nc(-n3cc(C(=O)O)cn3)nc(O)c21 [Example 492] |

These compounds were tested against T2, human HIF-PHD3 (Homo sapiens, UniProt Q9H6Z9) (assay: HIF-PHD inhibition assay (fluorescence polarization), human HIF-PHD3). Conditions: 2-oxoglutaric acid 166 μmol/L.
T2 construct: purchased CrystalGenomics Ltd
T2 sequence (Q9H6Z9 whole entry): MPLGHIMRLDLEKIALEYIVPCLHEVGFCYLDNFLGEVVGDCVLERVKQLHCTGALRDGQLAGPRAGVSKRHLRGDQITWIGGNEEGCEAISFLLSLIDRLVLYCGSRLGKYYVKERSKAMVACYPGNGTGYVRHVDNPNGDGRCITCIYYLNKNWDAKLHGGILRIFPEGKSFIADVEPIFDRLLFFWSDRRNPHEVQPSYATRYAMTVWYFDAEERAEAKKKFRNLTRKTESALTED
Type: biochemical
Protocol: as §1, §2, §3

| IC50 [nM] | SMILES |
| --- | --- |
| 400 | CC1CC(n2ncc3nc(-n4cc(C(=O)O)cn4)nc(O)c32)CC(C)(C)C1 (single isomer, unassigned) [Example 408] |
| 430 | C[C@@H](c1ccc(F)c(F)c1)n1nc(C2CC2)c2nc(-n3cc(C(=O)O)cn3)nc(O)c21 [Example 459] |
| 780 | O=C(O)c1cnn(-c2nc(O)c3c(cnn3C(c3ccc(Cl)cc3)C3CC3)n2)c1 (centres unmarked) [Example 364] |
| 1200 | Cc1nn([C@@H](C)c2cccc(F)c2)c2c(O)nc(-n3cc(C(=O)O)cn3)nc12 [Example 449] |
| 180 | CCC(c1ccc(Cl)cc1)n1ncc2nc(-n3cc(C(=O)O)cn3)nc(O)c21 (centres unmarked) [Example 322] |
| 490 | CC1(C)CC(=O)N(c2ccc(Cn3ncc4nc(-n5cc(C(=O)O)cn5)nc(O)c43)cc2)C1 [Example 420] |
| 270 | O=C(O)c1cnn(-c2nc(O)c3c(cnn3Cc3ccc(-c4ccc(C(F)(F)F)cc4Cl)cc3)n2)c1 [Example 73] |
| 390 | CC(C)C(c1ccc(C(F)(F)F)cc1)n1ncc2nc(-n3cc(C(=O)O)cn3)nc(O)c21 (single isomer, unassigned) [Example 357] |
| 680 | CC(C)C(c1ccc(F)cc1)n1ncc2nc(-n3cc(C(=O)O)cn3)nc(O)c21 (centres unmarked) [Example 354] |
| 170 | C[C@@H](C1CCN(c2cccc(Cl)c2)CC1)n1ncc2nc(-n3cc(C(=O)O)cn3)nc(O)c21 [Example 435] |
| 610 | CC(c1ccc(F)c(C(F)(F)F)c1)n1ncc2nc(-n3cc(C(=O)O)cn3)nc(O)c21 (centres unmarked) [Example 303] |
| 400 | O=C(O)c1cnn(-c2nc(O)c3c(cnn3C(c3ccc(F)c(Cl)c3)C3CC3)n2)c1 (single isomer, unassigned) [Example 371] |
| 710 | Cc1cc(C(C)n2ncc3nc(-n4cc(C(=O)O)cn4)nc(O)c32)ccc1F (centres unmarked) [Example 301] |
| 410 | C[C@@H](C1CCC(C)(C)CC1)n1ncc2nc(-n3cc(C(=O)O)cn3)nc(O)c21 [Example 382] |
| 170 | Cc1cccc(OCCCn2ncc3nc(-n4cc(C(=O)O)cn4)nc(O)c32)c1C [Example 180] |
| 150 | CC(C)(C)[C@H]1CC[C@H](Cn2nc(Cl)c3nc(-n4cc(C(=O)O)cn4)nc(O)c32)CC1 [Example 225] |

| IC50 [nM] | SMILES |
| --- | --- |
| 530 | CCC(c1ccc(C)cc1)n1ncc2nc(-n3cc(C(=O)O)cn3)nc(O)c21 (centres unmarked) [Example 328] |
| 500 | C[C@H]1CC[C@H](n2ncc3nc(-n4cc(C(=O)O)cn4)nc(O)c32)CC1 [Example 384] |
| 230 | O=C(O)c1cnn(-c2nc(O)c3c(cnn3C[C@H]3CCN(c4ccc(Cl)cc4)C3)n2)c1 [Example 428] |
| 260 | Cc1c(OCCCn2ncc3nc(-n4cc(C(=O)O)cn4)nc(O)c32)ccc2c1CCCC2 [Example 190] |
| 770 | CC(C)C(c1cc(F)cc(F)c1)n1ncc2nc(-n3cc(C(=O)O)cn3)nc(O)c21 (centres unmarked) [Example 360] |
| 910 | CC1(C)CCCC1n1ncc2nc(-n3cc(C(=O)O)cn3)nc(O)c21 (single isomer, unassigned) [Example 418] |
| 610 | CC(C)(Cn1ncc2nc(-n3cc(C(=O)O)cn3)nc(O)c21)c1ccc(Cl)c(Cl)c1 [Example 121] |
| 340 | O=C(O)c1cnn(-c2nc(O)c3c(cnn3[C@@H]3CCc4ccccc43)n2)c1 [Example 396] |
| 540 | C[C@@H](C1CCN(c2ccc(OC(F)(F)F)cc2)CC1)n1ncc2nc(-n3cc(C(=O)O)cn3)nc(O)c21 [Example 433] |
| 340 | Cc1cc(C(C2CC2)n2ncc3nc(-n4cc(C(=O)O)cn4)nc(O)c32)ccc1F (single isomer, unassigned) [Example 377] |
| 610 | Cc1ccc([C@@H](C)n2ncc3nc(-n4cc(C(=O)O)cn4)nc(O)c32)cc1C(F)(F)F [Example 277] |
| 1400 | C[C@@H](c1cc(Cl)ccc1F)n1ncc2nc(-n3cc(C(=O)O)cn3)nc(O)c21 [Example 282] |
| 550 | CC1(C)CCCC(n2ncc3nc(-n4cc(C(=O)O)cn4)nc(O)c32)C1 (centres unmarked) [Example 411] |
| 36 | COc1cc(-c2ccccc2F)ccc1Cn1ncc2nc(-n3cc(C(=O)O)cn3)nc(O)c21 [Example 90] |
| 440 | CCC(C)(C)Cn1ncc2nc(-n3cc(C(=O)O)cn3)nc(O)c21 [Example 492] |
